The record followed here is US4197288A, “Neuroleptic radioreceptor assay method and kit” (Burroughs Wellcome Co., priority 1977, dated 1980).

Read-outs that look alike come from different tables or passages of the source.

For data set [1] the following is noted: human, in vivo, po.
Where [2] appears, read: 0.1 μM drug preincubated with serum 10 min at 37°.

`O=C(CCCN1CCC(O)(c2ccc(Cl)cc2)CC1)c1ccc(F)cc1` [Haloperidol] displayed a concentration in data set [1] of 10 to 350 nM.

For the molecule `CN(C)CCCN1c2ccccc2Sc2ccc(Cl)cc21` [chlorpromazine], the “Drug level recovered in the radioreceptor assay” value (“Drug level recovered” for short) (1 μM drug preincubated with serum 10 min at 37°) is 1000 ± 100 nM.

Turning to `OCCN1CCN(CCCN2c3ccccc3Sc3ccc(C(F)(F)F)cc32)CC1` [fluphenazine], the “Drug level recovered” value under setting [2] amounted to 120 ± 10 nM.

Turning to `CN1CCN(CCCN2c3ccccc3Sc3ccc(C(F)(F)F)cc32)CC1` [trifluoperazine], the “Drug level recovered” value under setting [2] is 160 ± 200 nM.
